Our source for the ALP activity, OPG concentration and Dkk-1 concentration values is patent US9452185B2, “Mesenchymal stem cells and supports for tissue regeneration, repair and reconstruction” (THE TEXAS A&M UNIVERSITY SYSTEM, priority 2009, dated 2016).

Entries after “also recorded” stand apart in the source; their conditions may differ.

Holding throughout (format): cell-based, human
In one assay the test system is hMSCs. The assay can be described thus: Alkaline phosphatase (ALP) activity of hMSCs in osteogenic media. Here is the method: For non-mineralizing osteogenic differentiation, hMSCs were plated in 12-well plates at 100 cells cm^−2. Upon reaching about 70% confluency, the media was changed to osteogenic base media (OBM) containing 50 μg mL^−1 ascorbic acid and 5 mM β-glycerol phosphate and either GW9662 or DMSO. Media was changed every 2 days for 8-10 days following measurement of ALP activity. For this purpose, the monolayer was washed with PBS and then with ALP reaction buffer (100 mM Tris-HCl, pH 9, containing 100 mM KCl and 1 mM MgCl2). One half mL of ALP buffer then 0.5 mL p-nitrophenol phosphate (PNPP) was rapidly added to the wells. ALP activity was measured as the rate of PNPP conversion to p-nitrophenolate by monitoring the absorbance at 405 nm every 30 seconds for 9 minutes using a plate reader. The rates were normalized against cell number and statistically analyzed using one-way analysis of variance (ANOVA) and Tukey post test for multiple comparisons or by Student's t-test, for single, unrelated comparisons.
Early osteogenic differentiation and alkaline phosphatase assays. MSCs were plated in 6-well plates at an initial plating density of 100 cells per cm^2 and cultured in standard complete media for 6 days until semi-confluence (approximately 5,000 cells per cm^2). Osteogenic base media consisting of complete media containing 5 mM β-GP and 50 μg mL^−1 ascorbate-2-phosphate and the appropriate inhibitor or vehicle was then used to induce early osteogenic differentiation. Assays were allowed to proceed for 8-10 days with changes of media every 2 days. ALP assays were performed as previously described (Gunn et al., 2006, Stem Cells 24:986-991).
(§1) In order to characterize the influence of 7AIPM on osteogenic differentiation, hMSC's from two donors were cultured as described elsewhere herein with the addition of varying concentrations of the compound or vehicle to the media. Samples of the media were collected daily for analysis. These samples were analyzed for the presence of OPG and Dkk-1 using ELISA. Alkaline phosphatase activity of the monolayers and cell numbers were measured using a spectrophotometer.

In a further assay the test system is osteoprotegerin (OPG). The experiment in a line: OPG secretion by ELISA. Conditions: 7AIPM in osteogenic culture. On the procedure:
as §1, with “ELISAs. ELISA for CXCL6, Dkk-1, GROa, GRO13, and OPG were carried out by using nonbiotinylated polyclonal capture antibodies and biotinylated detection antibodies that were commercially acquired on coated 96-well plates The biotinylated […] antibodies were detected by using horseradish peroxidase-conjugated streptavidin and TMB substrate. ELISA for IL-lb were performed by using commercially acquired kits. In” for “In”

The next assay concerns Dkk-1. The experiment in a line: Dkk-1 secretion by ELISA. As to conditions: 7AIPM in osteogenic culture. On the procedure: as §1, with “ELISAs. ELISA for CXCL6, Dkk-1, GROa, GRO13, and OPG were carried out by using nonbiotinylated polyclonal capture antibodies and biotinylated detection antibodies that were commercially acquired on coated 96-well plates The biotinylated […] antibodies were detected by using horseradish peroxidase-conjugated streptavidin and TMB substrate. ELISA for IL-lb were performed by using commercially acquired kits. In” for “In”
A general note: In an ELISA, binding on a coated surface is turned into a signal by an enzyme label.

With “Dldc-1: Wnt inhibitor added to block canonical Wnt signaling”, the ALP activity entry in the assay on hMSCs (osteogenic media without dexamethasone, 8 days) is recorded as “attenuated”.
Consider 7-azaindolyl-pyrazinylmaleimide [7AIPM], for which the ALP activity result in the assay on hMSCs (MSC monolayers, osteogenic medium with increasing doses, four days) is on record as “increased; also recorded: biphasic dose dependant effect”. In addition, the OPG concentration result in the assay with osteoprotegerin (OPG) is “increased”. Besides, in the assay on Dkk-1, the Dkk-1 concentration entry is on record as “decrease”.
